According to patent US5324747A, “N-substituted anilines, inhibitors of phospholipases A2” (Hoffmann-La Roche Inc., priority 1992, dated 1994):
pIC50: −log10 of the molar value.

Experiments:
[1] = system: PLA2 Rat Paw Edema; assay: Phospholipase A2 Rat Paw Edema; format: in vivo, Lewis rats; conditions: Rattus norvegicus; 2 hr; 30 mg/kg; read-out: % Inhib of PLA2 Rat Paw Edema 2 hr (30 mg/kg)
Protocol: Phospholipase A2 Rat Paw Edema
Representation compounds of the invention were tested in rats to determine their ability to inhibit the acute inflammatory response induced by the injection of snake venom phospholipase A2. Test compounds are administered intraperitoneally or orally to groups of seven Lewis rats (≈200 gm) 1 hr prior to phospholipase A2 administration. The test compounds are dissolved in dimethyl sulfoxide for intraperitoneal administration and dissolved or suspended in Labrafil M-1944CS for oral administration. At 0 hr, 5 ug (10 units) of purified phospholipase A2 from Naja naja venom (Sigma Chem. Co.) dissolved in 0.1 mL of pyrogen free saline is injected subplantarly into the right hind paw to elicit the inflammatory response. The volume (in mL) of the right hind paw is measured by immersion of the paw to the level of the lateral malleolus in an aqueous plethysmometer immediately prior to the injection of phospholipase A2 and then at 0.5, 2 and 4 hr after phospholipase A2 injection. The paw edema is calculated by subtracting the zero time reading from the readings taken after injection. The percent change of the edema volume from the vehicle treated control is calculated to determine the activity of the test compound. Statistical analysis of the mean paw edema values of the control versus the treated groups is performed using Student's t-test. Significance of changes from mean value for vehicle-treated animals (*p<0.05, **p<0.01, ***p<0.001, ns/not significant).

[2] = system: Croton Oil Mouse Ear Edema; assay: Croton Oil Mouse Ear Edema Test; format: in vivo, CD-1 mice; conditions: topical, coapplied, 6 hours
Protocol: Twenty five μl of a 1% croton oil solution [dissolved in a mixture of pyridine/water/diethyl ether at a ratio of 5/20/75 (croton oil vehicle)] are applied to the outer side of the right ear of 3-4 week old made CD-1 mice (8 animals per group). The test compounds are dissolved directly in the 1% croton oil solution at various concentrations and coapplied. Control animals receive 25 μl of croton oil vehicle on the right ear. Biopsy punches are removed at 6 hours from the right ear of the animals using a 6 mm skin trephine (Roboz, Washington, D.C.) and the wet weight of the ear punches is determined. The weight of the biopsy punches is a measure of ear inflammation, primarily edema. The data are expressed as percent inhibition relative to control groups.

[3] = target: T1, HSF-PLA2 (Homo sapiens, UniProt P14555); assay: Assay for Inhibition of HSF-PLA2 In Vitro; format: biochemical; conditions: for pIC50: read-out: Inhib of HSF-PLA2 IC50
T1 construct: extracellular enzyme obtained from human synovial fluid (HSF-PLA2); from tissue; host or cells: pooled human synovial fluid, added at 0.1% (v/v)
T1 sequence (P14555 21-144): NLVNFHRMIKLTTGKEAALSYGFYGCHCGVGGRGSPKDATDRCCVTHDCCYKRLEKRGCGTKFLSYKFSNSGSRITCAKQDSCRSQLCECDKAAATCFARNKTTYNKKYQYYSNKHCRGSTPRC
Protocol: Assay for Inhibition of HSF-PLA2 In Vitro
The PLA2 used in this test is the extracellular enzyme obtained from human synovial fluid (HSF-PLA2).
The optimal conditions which were developed for the assay of HSF-PLA2 inhibitors are summarized as follows. […] The reaction was initiated by the addition of HSF-PLA2 and duplicate samples of the mixture were incubated in 13×100 mm glass tubes with shaking for 30 minutes at 37° C. […] The extraction of lipids from the stopped reaction mixture was conducted by the further additions of […] of chloroform and 1 ml of water with mixing. After centrifuging, the lower chloroform phase was transferred to smaller glass tubes and the solvent was evaporated to dryness with a nitrogen stream. The extracted lipid residue was redissolved in 50 μl of a solution containing carrier oleic acid (0.2 mg/ml) of chloroform-methanol [9 to 1, v/v]). The whole lipid extract was applied to a preactivated (30 minutes at 110° C.) silica gel-impregnated glass fiber thin layer chromatography sheet (ITLC type SG sheet from Gelman Sciences, Inc., Ann Arbor, Mich.) using hexane-acetic acid (100 to 1, v/v) as the developing solvent. This TLC system rapidly (6 minutes) resolved the enzymatically released product, ^14 C-oleic acid, from the unreacted ^14 C-phospholipid substrate. The unsaturated lipids were located on the chromatogram by a brief exposure to iodine vapor. […] A control incubation of substrate in the absence of HSF-PLA2 was performed in each experiment.

[4] = read-out: Inhib of HSF-PLA2, % inhibition

In the case of `COC(=O)CCCCCCCCCCOc1cc(OCCCCCCCCCCC(=O)OC)cc(N(CC(=O)O)CC(=O)O)c1` [Example 6j, N-(carboxymethyl)-N-[3,5-bis[(11-methoxy-11-oxoundecyl)oxy]phenyl]glycine], the inhibition in vivo at 30 mg/kg [1] was 0%, the “% Inhib of Croton Oil Mouse Ear Edema (1 mg)” value (from here on “% Inhib”) [2] was 66% and the pIC50 [3] was 6.52.
With `O=C(O)CCCCCCCCCCOc1cc(OCCCCCCCCCCC(=O)O)cc(N(CC(=O)O)CC(=O)O)c1` [Example 6k, N-(carboxymethyl)-N-[3,5-bis[(11-hydroxy-11-oxoundecyl)oxy]phenyl]glycine] the inhibition in vivo at 30 mg/kg [1] was 0%, the “% Inhib” value [2] was 16% and the inhibition at 10 µM ([3]; (10 μM), read-out: Inhib of HSF-PLA2, % inhibition) was 35%.
In the case of `O=C(O)CN(CC(=O)O)c1cc(OCCCOc2ccccc2-c2ccccc2)cc(OCCCOc2ccccc2-c2ccccc2)c1` [Example 6l], the inhibition in vivo at 30 mg/kg [1] was 0%, the “% Inhib” value [2] was 30% and the pIC50 [3] was 6.38.
For `CCCCCCCCCCOC(=O)c1cc(C(=O)OCCCCCCCCCC)cc(N(CC(=O)O)CC(=O)O)c1` [Example 6v, N-(carboxymethyl)-N-[3,5-bis[(decyloxy)carbonyl]phenyl]glycine], the inhibition in vivo at 30 mg/kg [1] was 9%, the “% Inhib” value [2] was 80% and the inhibition at 1 µM [3, 4] was 73%.
In the case of `CCCCCCCCCCNC(=O)c1cc(NCC(=O)O)cc(C(=O)NCCCCCCCCCC)c1` [Example 12, N-[3,5-Bis[(decylamino)carbonyl]phenyl]glycine], the inhibition in vivo at 30 mg/kg [1] was 34%, the “% Inhib” value [2] was 70% and the pIC50 [3] was 5.28.
`CCCCCCCCCCCCCCOC(=O)c1cc(C(=O)OCCCCCCCCCCCCCC)cc(N(CC(=O)O)CC(=O)O)c1` [Example 25, N-(Carboxymethyl)-N-[3,5-bis[(tetradecyloxy)carbonyl]phenyl]glycine] was tested, and the inhibition in vivo at 30 mg/kg [1] was 17%, the “% Inhib” value [2] was 62% and the inhibition at 1 µM [3, 4] was 48%.
With `CCCCCCCCCCOc1cc(OCCCCCCCCCC)cc(N2CC(=O)OC(=O)C2)c1` [Example 30, 4-[3,5-bis(decyloxy)phenyl]2,6-morpholinedione] the inhibition in vivo at 30 mg/kg [1] was 91%, the “% Inhib” value [2] was 63% and the pIC50 [3] was 6.33.
In the case of `CCCCCCCCCCOc1cc(OCCCCCCCCCC)cc(N(CC(N)=O)CC(=O)O)c1.N` [Example 32, N-(Carbamoylmethyl)-N-[3,5-bis(decyloxy)phenyl]glycine ammonium salt], the inhibition in vivo at 30 mg/kg [1] was 23%, the “% Inhib” value [2] was 54% and the inhibition at 1 µM [3, 4] was 48%.
For `CCCCCCCCCCOc1cc(OCCCCCCCCCC)cc(N(CC(=O)O)CC(=O)OCCN(CC)CC)c1.Cl` [Example 33, N-(2-Diethylaminoethoxy-2-oxoethyl)-N-[3,5-bis(decyloxy)phenyl]glycine monohydrochloride salt], the inhibition in vivo at 30 mg/kg [1] was 15%, the “% Inhib” value [2] was 25% and the inhibition at 1 µM [3, 4] was -5%.
`CCCCCCCCCCCCCCCCCC(=O)Oc1cccc(N(CC(=O)O)CC(=O)O)c1` [Example 36b] was tested, and the inhibition in vivo at 30 mg/kg [1] was 0%, the “% Inhib” value [2] was 61% and the pIC50 [3] was 6.70.
`CCCCCCCCCCCCCCCCCNC(=O)Oc1cccc(N(CC(=O)O)CC(=O)O)c1` [Example 36c, N-(carboxymethyl)-N-[3-[[(heptadecylamino)carbonyl]oxy]phenyl]glycine] was tested, and the inhibition in vivo at 30 mg/kg [1] was 0%, the “% Inhib” value [2] was 0% and the pIC50 [3] was 6.00.
With `CCCCCCCCCCCCCCCCCCNC(=O)Nc1cccc(N(CC(=O)O)CC(=O)O)c1` [Example 36e, N-(carboxymethyl)-N-[3-[[(octadecylamino)carbonyl]amino]phenyl]glycine] the inhibition in vivo at 30 mg/kg [1] was 30%, the “% Inhib” value [2] was 31% and the inhibition at 5 µM [3, 4] was 74%.
For `CCCCCCCCCCCCCCCCCCNC(=O)c1cccc(N(CC(=O)O)CC(=O)O)c1` [Example 42], the inhibition in vivo at 30 mg/kg [1] was 38%, the “% Inhib” value [2] was 0% and the pIC50 [3] was 6.40.
In the case of `CCCCCCCCCCCCCCCCCC(=O)Nc1cccc(N(CC(=O)O)CC(=O)O)c1` [Example 46], the inhibition in vivo at 30 mg/kg [1] was 44% and the “% Inhib” value [2] was 35%.
In the case of `CCCCCCCCCCCCCCCCCCOc1cc(OCCO)cc(N(CC(=O)O)CC(=O)O)c1` [Example 58a, N-(carboxymethyl)-N-[3-(2-hydroxyethoxy)-5-(octadecyloxy)phenyl]glycine], the inhibition in vivo at 30 mg/kg [1] was 29%, the “% Inhib” value [2] was 0% and the pIC50 [3] was 6.70.
In the case of `CCCCCCCCCCCCCCCCCCOc1cc(OCC(=O)OC)cc(N(CC(=O)O)CC(=O)O)c1` [Example 58b, N-(carboxymethyl)-N-[3-(2-methoxy-2-oxoethoxy)-5-(octadecyloxy)phenyl]glycine], the inhibition in vivo at 30 mg/kg [1] was 20%, the “% Inhib” value [2] was 19% and the inhibition at 5 µM [3, 4] was 91%.
With `CCCCCCCCCCCCCCCCCCOc1cc(OCC(=O)O)cc(N(CC(=O)O)CC(=O)O)c1` [Example 58c, N-[3-(carboxymethoxy)-5-(octadecyloxy)phenyl]-N-(carboxymethyl)glycine] the inhibition in vivo at 30 mg/kg [1] was 39%, the “% Inhib” value [2] was 0% and the pIC50 [3] was 5.55.
In the case of `CCCCCCCCCCCCCCCCCCOc1cc(OCCOc2ccc3ccccc3c2)cc(N(CC(=O)O)CC(=O)O)c1` [Example 58h, N-(carboxymethyl)-N-[3-[2-(2-naphthalenyloxy)ethoxy]-5-(octadecyloxy)phenyl]glycine], the inhibition in vivo at 30 mg/kg [1] was 31%, the “% Inhib” value [2] was 3% and the pIC50 [3] was 7.30.
For `CCCCCCCCCCCCCCCCCCOc1cc(OCCCOc2cccc(OC)c2)cc(N(CC(=O)O)CC(=O)O)c1` [Example 58j, N-(carboxymethyl)-N-[3-[3-(3-methoxyphenoxy)propoxy]-5-(octadecyloxy)phenyl]glycine], the inhibition in vivo at 30 mg/kg [1] was 57%, the “% Inhib” value [2] was 28% and the pIC50 [3] was 7.22.
`CCCCCCCCCCCCCCCCCCOc1cc(OCCCOc2ccc(OC)cc2)cc(N(CC(=O)O)CC(=O)O)c1` [Example 58k, N-(carboxymethyl)-N-[3-[3-(4-methoxyphenoxy)propoxy]-5-(octadecyloxy)phenyl]glycine] was tested, and the inhibition in vivo at 30 mg/kg [1] was 0%, the “% Inhib” value [2] was 85% and the pIC50 [3] was 7.30.
With `CCCCCCCCCCCCCCCCCCOc1cc(OCCCOc2ccc(O)cc2)cc(N(CC(=O)O)CC(=O)O)c1` [Example 58l, N-(carboxymethyl)-N-[3-[3-(4-hydroxyphenoxy)propoxy]-5-(octadecyloxy)phenyl]glycine] the inhibition in vivo at 30 mg/kg [1] was 53%, the “% Inhib” value [2] was 76% and the inhibition at 1 µM [3, 4] was 81%.
With `CCCCCCCCCCCCCCCCCCOc1cc(OCCCOc2ccc(C(=O)OC)cc2)cc(N(CC(=O)O)CC(=O)O)c1` [Example 58o, N-(carboxymethyl)-N-[3-[3-[4-(methoxycarbonyl)phenoxy)propoxy]-5-(octadecyloxy)phenyl]glycine] the inhibition in vivo at 30 mg/kg [1] was 0%, the “% Inhib” value [2] was 30% and the pIC50 [3] was 7.00.
With `CCCCCCCCCCOc1cc(C(=O)OC)cc(N(CC(=O)O)CC(=O)O)c1` [Example 69c, N-(carboxymethyl)-N-[(3-methoxycarbonyl)-5-(decyloxy)phenyl]glycine] the inhibition in vivo at 30 mg/kg [1] was 1% and the “% Inhib” value [2] was 78%.
`CCCCCCCCCCOc1cc(OCCCCCCCCCC)cc(N(CC(=O)OCC(=O)N(CCO)CCO)CC(=O)OCC(=O)N(CCO)CCO)c1` [Example 131] was tested, and the inhibition in vivo at 30 mg/kg [1] was 18% and the “% Inhib” value [2] was 47%.
